Measured values reported in PubChem BioAssay (NCI).
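Interpolation was linear, between the two tested concentrations surrounding the appropriate level; five concentrations were tested over 48 hours in 96-well plates. Here, GI50 denotes the concentration required for 50% inhibition of growth. TGI: concentration producing complete growth inhibition.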

Experiments:
Experiment in all cases: inhibition of tumour cell growth, NCI panel, 48 h
[1] = tested on: SNB-75 CNS
[2] = tested on: BT-549 breast
[3] = tested on: OVCAR-3 ovarian
[4] = tested on: RXF 393 renal
[5] = tested on: LOX IMVI melanoma
[6] = tested on: MOLT-4 leukemia
[7] = tested on: MDA-MB-231 breast
[8] = tested on: T-47D breast
[9] = tested on: NCI-H460 lung
[10] = tested on: OVCAR-4 ovarian
[11] = tested on: CCRF-CEM leukemia
[12] = tested on: SF-539 CNS
[13] = tested on: OVCAR-8 ovarian
[14] = tested on: M14 melanoma
[15] = tested on: UO-31 renal
[16] = tested on: HCC-2998 colon
[17] = tested on: MCF7 breast
[18] = tested on: NCI-H23 lung
[19] = tested on: IGROV1 ovarian
[20] = tested on: NCI/ADR-RES ovarian
[21] = tested on: COLO 205 colon
[22] = tested on: UACC-257 melanoma
[23] = tested on: PC-3 prostate
[24] = tested on: MDA-MB-435
[25] = tested on: SK-MEL-5 melanoma
[26] = tested on: 786-0 renal
[27] = tested on: UACC-62 melanoma
[28] = tested on: KM12 colon
[29] = tested on: SK-MEL-28 melanoma
[30] = tested on: SNB-19 CNS
[31] = tested on: RPMI-8226 leukemia
[32] = tested on: U251 CNS
[33] = tested on: EKVX NSCLC
[34] = tested on: HCT-15 colon
[35] = tested on: SK-MEL-2 melanoma
[36] = tested on: SR leukemia
[37] = tested on: ACHN renal
[38] = tested on: K-562 leukemia
[39] = tested on: CAKI-1 renal
[40] = tested on: A549 NSCLC
[41] = tested on: SN12C renal
[42] = tested on: DU-145 prostate
[43] = tested on: TK-10 renal
[44] = tested on: HCT-116 colon
[45] = tested on: HT29 colon
[46] = tested on: SK-OV-3 ovarian
[47] = tested on: HL-60(TB) leukemia
[48] = tested on: SF-268 CNS
[49] = tested on: NCI-H522 lung
[50] = tested on: MDA-MB-468 breast
[51] = tested on: HOP-92 NSCLC
[52] = tested on: MALME-3M melanoma
[53] = tested on: SW-620 colon
[54] = tested on: A498 renal
[55] = tested on: HS 578T breast
[56] = tested on: SF-295 CNS
[57] = tested on: OVCAR-5 ovarian
[58] = tested on: HOP-62 NSCLC
[59] = tested on: NCI-H226 lung

CN1CCc2c(sc3ncnc(N/N=C/c4cn(-c5ccccc5)nc4-c4ccc(Cl)cc4)c23)C1
GI50 [1]: 13.8 µM | TGI [1]: 60.8 µM | GI50 [2]: 2.89 µM | TGI [2]: > 31.8 µM | GI50 [3]: 0.242 µM | TGI [3]: 6.22 µM | GI50 [4]: 3.56 µM | TGI [4]: 34.6 µM | GI50 [5]: 0.305 µM | TGI [5]: 4.12 µM | GI50 [6]: 0.319 µM | TGI [6]: > 100 µM | GI50 [7]: 0.468 µM | TGI [7]: 32 µM | GI50 [8]: 2.59 µM | TGI [8]: > 100 µM | GI50 [9]: 0.39 µM | TGI [9]: 30 µM | GI50 [10]: 0.462 µM | TGI [10]: 69.9 µM | GI50 [11]: 0.504 µM | TGI [11]: > 100 µM | GI50 [12]: 0.345 µM | TGI [12]: 10.7 µM | GI50 [13]: 0.368 µM | TGI [13]: > 38.5 µM | GI50 [14]: 0.598 µM | TGI [14]: > 38.7 µM | GI50 [15]: 0.475 µM | TGI [15]: 25.4 µM | GI50 [16]: 0.5 µM | TGI [16]: 34.8 µM | GI50 [17]: 0.223 µM | TGI [17]: 0.635 µM | GI50 [18]: 0.326 µM | TGI [18]: 10.8 µM | GI50 [19]: 0.379 µM | TGI [19]: 21.1 µM | GI50 [20]: 0.32 µM | TGI [20]: 1.76 µM | GI50 [21]: 0.406 µM | TGI [21]: > 100 µM | GI50 [22]: 0.473 µM | TGI [22]: > 100 µM | GI50 [23]: 0.472 µM | TGI [23]: > 100 µM | GI50 [24]: 1.61 µM | TGI [24]: > 100 µM | GI50 [25]: 0.544 µM | TGI [25]: 20.5 µM | GI50 [26]: 0.588 µM | TGI [26]: 18 µM | GI50 [27]: 0.787 µM | TGI [27]: 14.4 µM | GI50 [28]: 0.496 µM | TGI [28]: > 100 µM | GI50 [29]: 5.56 µM | TGI [29]: > 100 µM | GI50 [30]: 3.28 µM | TGI [30]: > 57.3 µM | GI50 [31]: 0.443 µM | TGI [31]: > 100 µM | GI50 [32]: 0.688 µM | TGI [32]: > 54.1 µM | GI50 [33]: 0.313 µM | TGI [33]: > 42.6 µM | GI50 [34]: 0.39 µM | TGI [34]: > 100 µM | GI50 [35]: 0.99 µM | TGI [35]: 24.4 µM | GI50 [36]: 2.66 µM | TGI [36]: > 100 µM | GI50 [37]: 0.481 µM | TGI [37]: 20.4 µM | GI50 [38]: 0.29 µM | TGI [38]: > 100 µM | GI50 [39]: 1.32 µM | TGI [39]: > 66.7 µM | GI50 [40]: 0.496 µM | TGI [40]: > 100 µM | GI50 [41]: 0.34 µM | TGI [41]: > 100 µM | GI50 [42]: 1.41 µM | TGI [42]: > 100 µM | GI50 [43]: 2.47 µM | TGI [43]: 38.3 µM | GI50 [44]: 0.115 µM | GI50 [45]: 0.442 µM | TGI [45]: 13.9 µM | GI50 [46]: > 36.2 µM | TGI [46]: > 76.1 µM | GI50 [47]: 0.292 µM | TGI [47]: 1.98 µM | GI50 [48]: 0.678 µM | TGI [48]: > 100 µM | GI50 [49]: 0.323 µM | TGI [49]: 5.38 µM | GI50 [50]: 0.208 µM | TGI [50]: 0.595 µM | GI50 [51]: 0.643 µM | TGI [51]: 49.6 µM | GI50 [52]: 0.999 µM | TGI [52]: > 100 µM | GI50 [53]: 0.387 µM | TGI [53]: > 100 µM | GI50 [54]: > 56.7 µM | TGI [54]: > 100 µM | GI50 [55]: 15.6 µM | TGI [55]: > 89.7 µM | GI50 [56]: 0.403 µM | TGI [56]: > 37.7 µM | GI50 [57]: 0.419 µM | TGI [57]: > 100 µM | GI50 [58]: 0.724 µM | TGI [58]: > 84.3 µM | GI50 [59]: 1.19 µM | TGI [59]: > 65.9 µM
